The subject of assay [1] is Acute promyelocytic leukemia (APL) NB4 cells. In words: NB4 cells treated with MC2580: proliferation, Wright-Giemsa staining, serial replating CFU assay. It is filed as cell-based. Particulars: 2 μM, 6 days, DMSO control. On the procedure: FIGS. 1A-1C. […] (FIG. 1A) Relative proliferation of NB4 APL cells treated with MC2580 ([…]) and RA ([…]) for indicated times (DMSO serves as control). (FIG. 1B) Representative light micrographs show Wright-Giemsa staining of NB4 cell after treatment for 6 days. (DMSO serves as a control). (FIG. 1C) Analysis of the proliferative potential of treated NB4 cells by serial replating assay. (DMSO serves as control). (RA high(h)=retinoic acid, 1 μM, LSD1i=LSD1 inhibitor=MC2580).
Acute promyelocytic leukemia (APL) NB4 cells were treated with 2 μM LSD1 inhibitor MC2580, 1 μM retinoic acid (RA), and DMSO (control) for 6 days. The proliferation of the treated cells were quantified before treatment and during each of the 6 days (FIG. 1A). The treated cells were analyzed under light micrographs using Wright-Giemsa staining (FIG. 1B). The proliferation potential of the treated cells were analyzed by serial replating and Colony-Forming Unit (CFU) Assay (FIG. 1C).

The subject of assay [2] is Acute promyelocytic leukemia (APL) UF1 cells. Briefly: UF1 cells treated with MC2580: proliferation and Wright-Giemsa staining. It is filed as cell-based. The following applies: 2 μM, 7 days, DMSO control. As for the experimental part:
(§1) FIGS. 2A-2E. […] (FIG. 2A) Relative proliferation of UF1 cells treated with MC2580 (2 μM) and/or retinoic acid (10 nM) for 1 week. (FIG. 2B) Representative light micrograph show Wright-Giemsa staining of UF1 cell after treatment for 1 week. […] Values are normalized against GAPDH. (FIG. 2D) Immunoblot of PML-RARα in treated UF1 cells with indicated inhibitors. LSD1 inhibitors induces differentiation without PML-RARα degradation. (tubulin serves as control). (FIG. 2E) summary of cell-cycle status of UF1 cells following 1 week treatment with indicated inhibitors. (retinoic acid low(l)=10 nM, LSD1i=LSD1 inhibitor=MC2580).
(§2) Acute promyelocytic leukemia (APL) UF1 cells were treated with 2 μM LSD1 inhibitor MC2580, 10 nM retinoic acid (RA), 2 μM LSD1 inhibitor MC2580 plus 10 nM RA, and DMSO (control) for 7 days. The proliferation of the treated cells were quantified before treatment and post-treatment from each of day 2 to day 7 (FIG. 2A). The cells following the 1 week treatment were analyzed under light micrographs using Wright-Giemsa staining (FIG. 2B). The LSD1-inhibition induced expression of CD11b gene expression were analyzed. The mRNA of CD11b of the treated cells under each condition were normalized using GAPDH (FIG. 2C). PML-RARα protein level in the treated cells was analyzed by immune-blotting using an antibody against PML-RARα. Immuno-blotting of tubulin was used as loading control. […]

A further assay concerns UF1 cells. In words: Cell cycle analysis of UF1 cells. It is filed as cell-based. The following applies: 1 week treatment. As for the experimental part:
Acute promyelocytic leukemia (APL) UF1 cells were treated with 2 μM LSD1 inhibitor MC2580, 10 nM retinoic acid (RA), 2 μM LSD1 inhibitor MC2580 plus 10 nM RA, and DMSO (control) for 7 days. The proliferation of the treated cells were quantified before treatment and post-treatment from each of day 2 to day 7 (FIG. 2A). The cells following the 1 week treatment were analyzed under light micrographs using Wright-Giemsa staining (FIG. 2B). The LSD1-inhibition induced expression of CD11b gene expression were analyzed. The mRNA of CD11b of the treated cells under each condition were normalized using GAPDH (FIG. 2C). PML-RARα protein level in the treated cells was analyzed by immune-blotting using an antibody against PML-RARα. Immuno-blotting of tubulin was used as loading control. (FIG. 2D). […] Cell cycle analysis were performed following the 1 week treatment. […] (FIG. 2E).
UF1 cells were treated with p21-shRNA, scramble shRNA (SCR), LSD1 inhibitor MC2580, p21-shRNA plus MC2580, scramble shRNA (SCR) plus MC2580. Non-infected (NI) UF1 cells were included as control. The proliferation of the treated cells were quantified before treatment and post-treatment from each of day 2 to day 7 (FIG. 5C). The cells following the 1 week treatment were analyzed under light micrographs using Wright-Giemsa staining (FIG. 5D). Cell cycle analysis were performed following the 1 week treatment. […] (FIG. 5E).

The test system of a further assay is PML-RARα. Briefly: Immunoblot of PML-RARα in treated UF1 cells. It is filed as cell-based. The following applies: tubulin loading control. On the procedure:
as §1, §2
Background: In western blotting, separated proteins are transferred to a membrane and probed.

For assay [3], the system named is primary human melanoma cell lines (MMC-27B, MMC-49, MMC-936, MMC-35, MMC-38B, MMC-34). Briefly: Proliferation of six primary human melanoma cell lines with or without MC2580. Particulars: MC2580 2 μM, 6 days, versus cell lines having a shorter doubling time. It is filed as cell-based. On the procedure:
FIG. 14 depicts the proliferation of six primary human melanoma cell lines (MMC-27B, MMC-49, MMC-936, MMC-35, MMC-38B, MMC-34) over 6 days with or without treatment of LSD1 inhibitor MC2580 (2 μM) was analyzed. “MC” stands for MC2580 treated cells. “DMSO” stands for control cells treated with DMSO.
The proliferation of six primary human melanoma cell lines (MMC-27B, MMC-49, MMC-936, MMC-35, MMC-38B, MMC-34) over 6 days with or without treatment of an LSD1 inhibitor (MC2580) was analyzed. “MC” stands for MC2580 treated cells. Control cells (“DMSO”) were treated with DMSO.

A further assay relates to MMC-38B and MMC-34 cells. Briefly: Proliferation of MMC-38B and MMC-34 melanoma cells with shRNA and MC2580. It is filed as cell-based, human. The following applies: MMC-38B and MMC-34, 6 days, rescued by p21 knock-down. On the procedure: FIG. 16A depicts relative proliferation of melanoma cells (MMC-38B and MMC-34) that were treated with p21-shRNA (“P21KD-DMSO”), scramble shRNA (“SCR-DMSO”), scramble shRNA plus LSD1 inhibitor MC2580 (“SCR-LSD1i”), or p21-shRNA plus MC2580 (“P21KD-LSD1i”). Data are presented as mean of triplicates±SD.
(§3) MMC-38B and MMC-34 cells were treated with p21-shRNA (“P21KD-DMSO”), scramble shRNA (“SCR-DMSO”), scramble shRNA plus LSD1 inhibitor (MC2580) (“SCR-LSD1i”), or p21-shRNA plus MC2580 (“P21KD-LSD1i”). Tubulin was used as a loading control.

The test system of another assay is p21. In words: p21 expression (immunoblotting) in MMC-38B and MMC-34 melanoma cells. It is filed as cell-based, human. The following applies: MMC-38B and MMC-34, rescued by p21 knock-down. As for the experimental part:
FIG. 16C depicts the p21 expression level in melanoma cells analyzed in FIG. 16A.
as §3

Another assay deals with p21 gene. Briefly: Chromosome Conformation Capture assays (3C-qPCR) in UF1 and NB4 cells. It is filed as cell-based. The following applies: UF1 and NB4 cells, 12, 24, or 36 hours. As for the experimental part:
FIG. 27 depicts results from chromosome conformation capture assays (3C-qPCR) performed with chromatin from UF1 and NB4 cells that were treated for indicated times with the LSD1 inhibitor MC2580. (NT: not treated).
Luciferase reporter assays were performed to measure the activity of enhancer 1 (“E1”) and enhancer 1 (“E2”) of the p21 gene promoter in 293T cells and the results are depicted in FIG. 26. The pGL3 plasmid without the enhancer region (empty) was used as a negative control. Chromosome Conformation Capture assays (3C-qPCR) were performed with chromatin from UF1 and NB4 cells that were treated with the LSD1 inhibitor MC2580 for 12, 24, or 36 hours and the results are depicted in FIG. 27. Untreated cells (“Neg”) were included as control.
On the technique in general: In qPCR the cycle at which signal appears reflects the starting amount.

Each structure is given as a SMILES string. Entries after “also recorded” stand apart in the source; their conditions may differ.

For `NC1CC1c1ccc(NC(=O)C(Cc2ccccc2)NC(=O)OCc2ccccc2)cc1` (centres unmarked) [MC2580], the “sensitivity of NB4 cells to LSD1 inhibitor” value in assay [1] is given as “resistant to LSD1 inhibition; also recorded: largely insensitive”. Besides, in assay [2], the “sensitivity of UF1 cells to LSD1 inhibitor” value is “sensitive”. Moreover, the “UF1 cells arrested at the G0/G1 phase” value in the assay with UF1 cells is listed as “More UF1 cells were arrested at the G0/G1 phase”. In the assay with PML-RARα, the “UF1 cell differentiation and PML-RARα degradation” value is given as “induces UF1 cells differentiation without PML-RARα degradation”. Moreover, the “proliferation of slow-cycling melanoma cell lines (MMC-38B, MMC-34)” value in assay [3] was “more affected”. In the assay on MMC-38B and MMC-34 cells, the “cell growth of human primary melanoma cells” value is given as “cell growth inhibition”. Moreover, the “p21 expression in human primary melanoma cells” value in the assay with p21 was “increase of p21 expression”. In the assay with p21 gene, the “looping of E1 and E2 enhancer regions to the transcription start site of the p21 gene” value is reported as “induces dynamic looping”.

The values above are taken from US12576083B2, “Combinational therapy of LSD1 inhibitors with P21 activators in the treatment of cancer” (Istituto Europeo di Oncologia S.r.l., priority 2017, dated 2026).
